For data set [1] the following is noted: cited from earlier work.
For data set [2] the following is noted: in vivo. As to the method:
Eighteen volunteers were recruited for the study. The subjects were orally administered SHR2554 at a 50 mg daily dose (Day 1); then, they were orally administered itraconazole 200 mg Quaque Die (QD) for 4 days (Days 4–7) followed by co‐administration of itraconazole 200 mg and SHR2554 50 mg (Day 8). They took itraconazole 200 mg QD for 4 days (Days 9–12). All subjects were fasted for at least 10 h, and they ate a standard meal in 30 min before drug administration. Water was forbidden within 1 h after drug administration, and the subjects were fasted for at least 4 h after drug administration.
Safety evaluation included adverse events, laboratory tests, physical examination, measurement of vital signs, 12‐lead electrocardiogram, etc. All abnormal and clinically significant laboratory results were followed up until they returned to normal.

The subject of data set [3] is wild‐type and mutant EZH2 enzymes. The note with it: no method or reference given; cited from earlier work.
A further data set relates to Caco‐2 cell model. Further details: method as in PMID 34498807. The note with it: preclinical results; cited from earlier work.
Data set [4] concerns CYP3A4. The note with it: preclinical test, no method or reference given; cited from earlier work.
For a further data set, the system named is tumor. To be noted: same dose; no reference given; cited from earlier work.
Data set [5] relates to CYP3A4. The note with it: preclinical test, no method or reference given; cited from earlier work. The source holds these as a separate data set.
Data set [6] has as its system CYP3A4. The note with it: sponsor's preclinical studies, no method or reference given; cited from earlier work.
In data set [7] the test system is cell H3K27Me3 and cell proliferation. Also on record: method as in PMID 34503063. The note with it: cited from earlier work.
For data set [8] the following is noted: cited from earlier work. This is another data set of the same source.
A short description of data set [9]: Pharmacokinetic interaction study of itraconazole on SHR2554, plasma SHR2554 by HPLC-MS/MS. In kind it is in vivo, human. To be noted: for AUC0–t / AUC0–∞ / C max: plasma SHR2554, mean ± SD. On the procedure:
Eighteen volunteers were recruited for the study. […] The samples of venous blood (4 ml) were collected into heparinized Vacutainer™ tubes and mixed gently. […] Thereafter, plasma was separated by centrifugation (2000g at 4°C for 10 min) within 1 h of sample collection and then stored at −80°C before analyses. The plasma concentrations of SHR2554 were determined by a validated method with sensitivity and specificity using high‐performance liquid chromatography–tandem mass spectrometry (HPLC‐MS/MS) by Shanghai InnoStar Bio‐tech Co. Ltd. Blood samples were pretreated by protein precipitation with acetonitrile. Biological sample analysis was performed using SHR149633 (free base) as an internal standard. Separation of SHR2554 was carried out using a […] ZORBAX Extend‐C18 column (2.1 × 50 mm, 1.8 μm), and analytes were detected on an AB SCIEX QTRAP 5500 mass spectrometer. The assay was linear over the range of 1–2000 ng·ml^−1. […] Plasma samples are stable under various conditions. The PK parameters were evaluated using Phoenix WinNonlin v8.1. Statistical analysis was performed with SAS v9.2 (SAS Institute). Descriptive statistics and tabulation of PK parameters for analytes were performed, and mean concentration‐time curves were plotted. After natural log transformation, the PK parameters were fitted with a mixed‐effects model. In the mixed‐effects model analysis, medication (itraconazole combined with SHR2554 or SHR2554 alone) was used as a fixed effect, and the participants in the model fitting were used as random effects. The corrected least‐square mean difference and 90% confidence interval (CI) between the administration of a single drug (SHR2554) alone and a combination drug (co‐administration of SHR2554 and itraconazole) were obtained. The corrected least‐square mean difference and its 90% confidence interval were converted to the adjusted geometric mean ratios (GMRs) (co‐administration of SHR2554 and itraconazole/SHR2554 alone) and its 90% confidence interval by taking the antilog.

For data set [10] the following is noted: cited from earlier work. This is another data set of the same source.
Setting [11] is: completed or ongoing clinical trials of SHR2554, reference not given.
Where [12] appears, read: SHR2554 50 mg co-administered with itraconazole 200 mg (Day 8), fed, mean ± SD.
[13] abbreviates: SHR2554 50 mg co-administered with itraconazole 200 mg (Day 8), fed.
[14] abbreviates: SHR2554 50 mg single oral dose alone (Day 1), fed, mean ± SD.
Setting [15] is: SHR2554 50 mg single oral dose alone (Day 1), fed.
Setting [16] is: SHR2554 50 mg, itraconazole 200 mg, 90% CI in brackets.

The values below come from paper PMC9883540, “Study on pharmacokinetic interactions between SHR2554 and itraconazole in healthy subjects: A single‐center, open‐label phase I trial” (Cancer Medicine, 2022).

The structures appear in SMILES notation. Several values for one entry are separate records, joined by “and”; a condition that tells them apart may be missing. Identical values can stand only once. Entries after “also recorded” stand apart in the source; their conditions may differ. Like-named read-outs stand apart in the source and are kept apart here.

In the case of `CC[C@H](C)n1cc(C)c2c(C(=O)NCc3c(C)cc(C)[nH]c3=O)cc(-c3ccc(N4CCNCC4)nc3)cc21` [GSK2816126, reference compound], the “most common adverse reactions in clinical trial” value in data set [1] was “fatigue and nausea”.

For the compound `CCC(C)n1ncn(-c2ccc(N3CCN(c4ccc(OCC5COC(Cn6cncn6)(c6ccc(Cl)cc6Cl)O5)cc4)CC3)cc2)c1=O` (stereo not shown) [Itraconazole, itraconazole], in data set [2] (human), the “Itraconazole‐related TEAEs, Cases” value was 2; the “Itraconazole‐related TEAEs, Number of subjects (%)” value was 2 (11.1); the “SHR2554‐related TEAEs, Cases” value amounted to 1; the “SHR2554‐related TEAEs, Number of subjects (%)” value is given as 1 (5.6). Besides, in [2] (human), the “TEAEs, Cases” value came out at 2; the “TEAEs, Number of subjects (%)” value was 2 (11.1); the “TEAEs, Total” value was 2 (11.1); the “TEAEs: All kinds of inspection” value is 1 (5.6). For the same compound, in [2] (human), the “TEAEs: Appendicitis” value came to 0, the “TEAEs: Blood in the urine” value was found to be 0, the “TEAEs: Cardiac organ diseases” value worked out at 0 and the “TEAEs: Hematuria” value is reported as 0. In [2] (human), the “TEAEs: High blood uric acid” value is 0, the “TEAEs: Increased blood bilirubin” value worked out at 0, the “TEAEs: Increased blood triglyceride” value was 1 (5.6) and the “TEAEs: Increased heart rate” value was found to be 0. Moreover, in [2] (human), the “TEAEs: Infectious diseases” value is recorded as 0; the “TEAEs: Kidney and urinary system diseases” value amounted to 0; the “TEAEs: Positive bacterial tests” value is recorded as 0; the “TEAEs: Positive urine leukocyte” value came to 0. Besides, in data set [2] (human), the “TEAEs: Rash” value is recorded as 1 (5.6); the “TEAEs: Skin and subcutaneous tissue diseases” value is reported as 1 (5.6); the “TEAEs: Spermaturia” value worked out at 0; the “TEAEs: Supraventricular extrasystole contraction” value is 0. Also, the “drug-related TEAEs, Cases” value in [2] (human) stood at 6. In data set [2], the “drug-related TEAEs, Cases” value is “six”.

As to `CCc1c(N(CC)C2CCOCC2)cc2oc(CN3CCCCC3)cc2c1C(=O)NCc1c(C)cc(C)[nH]c1=O` [SHR2554], the “inhibition of the activity of wild-type and mutant EZH2 enzymes” value in [3] was “potently inhibits”. For the same compound, the permeability result in the data set with Caco‐2 cell model is “low permeability”. Also, the “electrocardiogram finding in some subjects” value in data set [1] (completed or ongoing clinical trials of SHR2554, clinically controllable, no reference given) is “prolongation of the QT interval of the electrocardiogram”. Also, in [1] (setting [11]), the “most common drug-related TEAEs in hematology” value was “decreased white blood cell count, thrombocytopenia, neutropenia, and hyperlipidemia, increased aspartate aminotransferase level, hypertension, elevated alanine aminotransferase, anemia”; the “non-hematological common drug-related TEAEs” value is “nausea and fatigue”. Besides, the “induction of the expression of the CYP3A4 enzyme” value in the data set on CYP3A4 [4] is listed as “only high concentration SHR2554 can induce”. For the same compound, in data set [2], the “Itraconazole‐related TEAEs, Cases” value was found to be 2; the “Itraconazole‐related TEAEs, Number of subjects (%)” value is given as 2 (11.1); the “SHR2554‐related TEAEs, Cases” value is 12; the “SHR2554‐related TEAEs, Number of subjects (%)” value is 9 (50.0). In data set [2], the “TEAEs, Cases” value was 13; the “TEAEs, Number of subjects (%)” value is given as 9 (50.0); the “TEAEs, Total” value is reported as 9 (50.0); the “TEAEs: All kinds of inspection” value was 8 (44.4). Further, in data set [2], the “TEAEs: Appendicitis” value is listed as 0, the “TEAEs: Blood in the urine” value is reported as 2 (11.1), the “TEAEs: Cardiac organ diseases” value was 1 (5.6) and the “TEAEs: Hematuria” value is recorded as 1 (5.6). Further, in [2], the “TEAEs: High blood uric acid” value is 1 (5.6), the “TEAEs: Increased blood bilirubin” value is listed as 0, the “TEAEs: Increased blood triglyceride” value is listed as 4 (22.2) and the “TEAEs: Increased heart rate” value is recorded as 1 (5.6). In [2], the “TEAEs: Infectious diseases” value was 0; the “TEAEs: Kidney and urinary system diseases” value was 2 (11.1); the “TEAEs: Positive bacterial tests” value is 2 (11.1); the “TEAEs: Positive urine leukocyte” value turned out to be 0. Moreover, in data set [2], the “TEAEs: Rash” value was determined as 0; the “TEAEs: Skin and subcutaneous tissue diseases” value is 0; the “TEAEs: Spermaturia” value is reported as 1 (5.6); the “TEAEs: Supraventricular extrasystole contraction” value is 1 (5.6). Also, in data set [2], the “drug-related TEAEs, Cases” value stood at 16. In addition, in the data set on tumor, the “serum and tumor systemic exposure as fraction of that of EPZ-6438” value is listed as “about one‐fifth”; the “tumor inhibition rate relative to the reference compound EPZ-6438” value was “higher”. In addition, the “inhibitory effect on CYP3A4” value in the data set on CYP3A4 [5] is “weak inhibitory effect”. Moreover, the “enzyme catalysing the oxidative metabolism” value with CYP3A4 [6] is “mainly metabolized by CYP3A4; also recorded: mainly catalyzed by CYP3A4”. Besides, in data set [7], the “IC50 for inhibiting cell H3K27Me3 and cell proliferation, relative to EPZ-6438” value is “comparable or even better”; the “anti-tumor activity in vitro, relative to EPZ-6438 (tazemetostat)” value was “comparable”. Further, the “subjects with grade four neutropenia reported as SAE/DLT” value in [8] (350 mg group, ref NCT03603951) was “one”. For the same compound, in data set [8] (400 mg BID group, as of January 3, 2020, ref NCT03603951), the “subjects with grade three and four decreased platelet counts reported as SAE/DLT” value is reported as “two”. The “safety at doses below 300 mg BID (including 300 mg BID)” value in [8] (no drug-related SAE or DLT, previous clinical studies, ref NCT03603951) was “good and good safety profile”. Besides, the “recommended phase II dose” value in [8] (previous clinical studies, ref NCT03603951) was 350 mg BID. Moreover, the “increase of exposure relative to increase of dose” value in [8] (range of 50–400 mg BID, ref NCT03603951) is “higher than that of the administered dose”. Moreover, the “subjects with grade two anemia reported as SAE” value in [8] (ref NCT03741712) was “one”. Also, in data set [9] (setting [12]), the “CL/F (apparent clearance)” value is 98.4 ± 46.96 L/h and the “t 1/2 (elimination half-life)” value came to 8.678 ± 3.6031 h. Further, in data set [9] (setting [13]), the “AUC0–t” value stood at 612.13 ± 315.720 ng·h/mL and the “AUC0–∞” value came to 641.53 ± 319.538 ng·h/mL. In [9] (SHR2554 50 mg co-administered with itraconazole 200 mg (Day 8; itraconazole 200 mg QD Days 4-12), fed), the C max is 70.538 ± 25.0219 ng/mL. For the same compound, the “plasma concentration of all subjects at 96 h” value in [9] (SHR2554 50 mg combined with itraconazole 200 mg) is given as “below LLOQ”. In data set [9] (setting [14]), the “AUC_%Extrap (percentage of AUCINF_pred due to extrapolation from Tlast to infinity)” value is 14.498 ± 2.9731 (20.51) [N = 8] %; the “CL/F (apparent clearance)” value is 2127.7 ± 1592.02 L·h^−1 and 2127.7 ± 1592.02 (74.82) [N = 18] L·h^−1; the T max was 1.472 ± 0.6286 (0.50, 3.00) [N = 18] h; the “V z /F” value is 8439.2 ± 3779.31 (44.78) [N = 18] L. The “t 1/2 (elimination half-life)” value in [9] (setting [14]) is 3.287 ± 1.0636 (1.76, 5.94) [N = 18] h. Moreover, in data set [9] (setting [15]), the “AUC0–t” value is 28.70 ± 18.913 (65.90) [N = 18] h·ng·ml^−1, the “AUC0–∞” value is 50.99 ± 19.358 (37.97) [N = 8] h·ng·ml^−1 and the C max is 10.197 ± 7.0262 (68.91) [N = 18] ng·ml^−1. Further, in [9] (setting [16]), the “adjusted geometric mean ratio of SHR2554 AUC0–t (co-administration with itraconazole / SHR2554 alone)” value turned out to be 23.75 fold, the “adjusted geometric mean ratio of SHR2554 AUC0–∞ (co-administration with itraconazole / SHR2554 alone)” value is reported as 12.47 fold and the “adjusted geometric mean ratio of SHR2554 C max (co-administration with itraconazole / SHR2554 alone)” value came to 7.73 fold. For the same compound, the “plasma concentration of all subjects at 24 h after administration” value in [9] (single-dose phase of SHR2554 50 mg, assay range 1–2000 ng·ml^−1) is “below lower limit of quantitation”.

For the compound `CC[C@H](C)C(=O)O[C@H]1C[C@@H](C)C=C2C=C[C@H](C)[C@H](CC[C@@H](O)C[C@@H](O)CC(=O)O)[C@H]21` [lovastatin (acid)], the “change in the AUC with itraconazole” value is listed as 15 fold in [10] (itraconazole dose 100 mg) and 20 fold in data set [10] (itraconazole dose 200 mg).

In the case of `CCN(c1cc(-c2ccc(CN3CCOCC3)cc2)cc(C(=O)NCc2c(C)cc(C)[nH]c2=O)c1C)C1CCOCC1` [tazemetostat, reference compound], in data set [1], the “adverse effects in clinical trial” value is “thrombocytopenia, neutropenia, and anemia”.
